ChEMBL document CHEMBL3259583, “Synthesis and biological evaluation of (+)-neopeltolide analogues: importance of the oxazole-containing side chain” (Bioorg Med Chem Lett, 2014)

Key:
[1] = Antiproliferative activity against human PANC1 cells after 96 hrs by WST-8 assay; type: functional, cell-based; conditions: PANC-1, 96 h
[2] = system: A549; assay: Antiproliferative activity against human A549 cells after 120 hrs by WST-8 assay; type: functional, cell-based; conditions: A549, 120 h
[3] = system: A549; assay: Ratio of (+)-Neopeltolide IC50 to compound IC50 for human A549 cells after 120 hrs by WST-8 assay; type: functional

Structure (SMILES)	IC50 [2]	IC50 [1]	Ratio IC50 [3]
C/C=C\c1nc(CC/C=C\C(=O)O[C@H]2C[C@@H]3CC(=O)O[C@@H](CCC)C[C@@H](OC)C/C(C)=C\[C@H](C2)O3)co1	740 nM	440 nM	–
CCC[C@H]1C[C@@H](OC)C/C(C)=C\[C@@H]2C[C@@H](OC(=O)CCCCc3coc(CCCNC(=O)OC)n3)C[C@H](CC(=O)O1)O2	> 10000 nM	3200 nM	–
CCC[C@H]1C[C@@H](OC)C/C(C)=C\[C@@H]2C[C@@H](OC(=O)/C=C\CCc3coc(C=C(C)C)n3)C[C@H](CC(=O)O1)O2	3900 nM	2800 nM	–
CCC[C@H]1C[C@@H](OC)C/C(C)=C\[C@@H]2C[C@@H](OC(=O)c3ccccc3CCc3coc(/C=C\CNC(=O)OC)n3)C[C@H](CC(=O)O1)O2	500 nM	75 nM	–

Now those with a lower IC50 [2], led by results:

IC50 [2]	Structure (SMILES)	IC50 [1]	Ratio IC50 [3]
2.5 nM	CCC[C@H]1C[C@@H](OC)C/C(C)=C\[C@@H]2C[C@@H](OC(=O)/C(C)=C\CCc3coc(/C=C\CNC(=O)OC)n3)C[C@H](CC(=O)O1)O2	2.6 nM	–
110 nM	CCC[C@H]1C[C@@H](OC)C/C(C)=C\[C@@H]2C[C@@H](OC(=O)CCCCc3coc(/C=C\CNC(=O)OC)n3)C[C@H](CC(=O)O1)O2	26 nM	–
6.3 nM	CCC[C@H]1C[C@@H](OC)C/C(C)=C\[C@@H]2C[C@@H](OC(=O)/C=C(/C)CCc3coc(/C=C\CNC(=O)OC)n3)C[C@H](CC(=O)O1)O2	6.4 nM	–
0.5 nM	CCC[C@H]1C[C@@H](OC)C/C(C)=C\[C@@H]2C[C@@H](OC(=O)/C=C\CCc3coc(/C=C\CNC(=O)OC)n3)C[C@H](CC(=O)O1)O2	2.4 nM	3
400 nM	CCC[C@H]1C[C@@H](OC)C/C(C)=C\[C@@H]2C[C@@H](OC(=O)/C=C\CCc3coc(CCCNC(=O)OC)n3)C[C@H](CC(=O)O1)O2	200 nM	–
